From patent publication US4333930A, “Orthoarylideneaminophenethylamines and pharmaceutical compositions” (priority 1980, dated 1982)
Where a name gives a salt, the structure may show the parent alone. Read-outs that look alike come from different tables or passages of the source.

Experiments:
[1] = test system: trembling induced by oxotremorine; test: Antagonism of trembling induced by oxotremorine, Table 7; type: in vivo; details: oral, read-out: % of inhibition of trembling induced by oxotremorine
Source text: (§1) The psychotropic profile of the present invention products has been characterized with the animals in numerous tests some of whose results are shown hereinafter. The products of the invention were always administered orally in 6% gum base.
(§2) Certain tests made it possible to show antidepressive activities. These are tests of antagonism to the effects of reserpine, oxotremorine (according to Everett G. M. et al, Science, 1956, 124, 79 and Levy J. et al, Therapie 1965, 20, 265) and to despair (according to Porsolt P. D. et al, Eur. J. Pharmacol., 1978, 47, 379-91).
% of inhibition of trembling induced by
oxotremorine as a function of the dose
administered expressed in mg/kg

[2] = test system: number of displacements of the animal; test: Four plates test (anxiolytic activity), Table 5; type: in vivo; details: oral, mouse
Source text: as §1
A certain number of products manifest an anxiolytic activity evidenced in the test with the four plates with the mouse (Table 5).
% of increase in the number of displacements of the
animal as a function of the dose expressed in mg/kg

[3] = Oral toxicity (mortality) in the mouse, Table 1; type: in vivo; details: mouse, in vivo, po, Swiss mice, 14 days
Experimental: (§3) The mortality percentages caused by the products of the present invention administered orally to Swiss mice are shown in Table 1. The animals, free of specific pathological organism were housed in an air conditioned room from 24 to 48 hours before the start of the experiments. They were divided up into lots of 5 males and 5 females. With the animals unfed for 24 hours, the substances were administered intragastrically in a base of 6% gum arabic in a volume equal to 0.1 ml for 10 g of animal weight. The mortality was recorded at 14 days.
(§4) % of mortality as a function of the dose

phenylbenzoquinone (PBQ) = test: Analgesic activity using phenylbenzoquinone (PBQ) as noxious agent, Table 2; type: in vivo, male Swiss mouse; details: Mus musculus
Experimental: The analgesic activity was determined with the male Swiss mouse using phenylbenzoquinone (PBQ) (a variation of the method of Siegmund et al, Proc. Soc. Exp. Med., […], 95, 729-31) as the noxious agent. Twenty-eightminutes after having administered the test products in a suspension in a 6% gum base, the PBQ solution was injected. The mice were then observed ca. 5 mn. for the next five minutes.
% of analgesic activity as a function of
the dose expressed in mg/kg

[4] = test system: number of escapes the animal made in 5 minutes; test: Escape test, Table 3; type: in vivo, mouse; details: oral, mouse, 5 minutes
Source text: The products of the invention were always administered orally in 6% gum base.
The notation NS signifies that the difference between the results noted for the product and the results noted for the excipient alone is not significant at the threshold 0.05 according to the Student t Test.

[5] = test system: ptosis induced by reserpine; test: Antagonism of ptosis induced by reserpine, Table 6; type: in vivo; details: oral, read-out: % of inhibition of ptosis induced by reserpine
Source text: as §1, §2
% of inhibition of ptosis induced by reserpine
as a function of the dose administered orally

Swiss mice = test: Oral toxicity (mortality) in the mouse, Table 1; type: in vivo; details: 1000 mg/kg, 14 days, 20160 min
Experimental: as §3, §4

[6] = male Swiss mouse, PBQ, read-out: % of analgesic activity
[7] = 100 mg/kg, male Swiss mouse, PBQ, read-out: % of analgesic activity
[8] = 200 mg/kg, male Swiss mouse, PBQ, read-out: % of analgesic activity
[9] = 5 min, read-out: % of activity (variation of the number of escapes)
[10] = read-out: % of analgesic activity, 100 mg/kg, male Swiss mouse, PBQ
[11] = read-out: % of analgesic activity, 200 mg/kg, male Swiss mouse, PBQ

C(=Nc1cc2c(cc1CCN1CCOCC1)OCO2)c1cccs1 [COR 01 180]
change in vivo at 50 mg/kg [1]: -22% | change in vivo at 100 mg/kg [1]: -44% | change in vivo at 200 mg/kg [1]: -44% | % of increase in the number of displacements of the animal ([2]; 25 mg/kg): +69% | % of increase in the number of displacements of the animal ([2]; 50 mg/kg): +88% | % of increase in the number of displacements of the animal ([2]; 75 mg/kg): +35% | mortality at 336 h ([3]; 500 mg/kg): 0% | mortality at 336 h ([3]; 1000 mg/kg): 70% | inhibition in vivo at 50 mg/kg (phenylbenzoquinone (PBQ); [6]): 18% | inhibition in vivo at 100 mg/kg (phenylbenzoquinone (PBQ); [7]): 26% | inhibition in vivo at 200 mg/kg (phenylbenzoquinone (PBQ); [8]): 34% | change in vivo at 50 mg/kg [4, 9]: -21% | change in vivo at 100 mg/kg ([4]; 5 min, 100 mg/kg, read-out: % of activity (variation of the number of escapes)): -37% | change in vivo at 200 mg/kg [4, 9]: -75% | change in vivo at 2.5 mg/kg ([5]; 2.5 mg/kg): -18% | change in vivo at 5 mg/kg ([5]; 5 mg/kg): -34% | change in vivo at 10 mg/kg ([5]; 10 mg/kg): -26% | change in vivo at 25 mg/kg [5]: -20%

CN(C)CCc1cc2c(cc1N=Cc1cccnc1)OCO2 [COR 01 201, 6-dimethylaminoethyl N-(pyridylidene-3)-1,3-benzodioxole-5-ylamine]
mortality at 336 h ([3]; 2000 mg/kg): 30% | % of mortality (Swiss mice): 10%

CN(C)CCc1ccccc1N=CC=Cc1ccccc1 [COR 01 185, N-cinnamylidene 2-(2-N,N,-dimethylaminoethyl)aniline]
mortality at 336 h ([3]; 1500 mg/kg): 0% | mortality at 336 h ([3]; 2000 mg/kg): 100%

CN1CCN(CCc2ccccc2N=Cc2cccnc2)CC1 [COR 01 205]
change in vivo at 50 mg/kg [1]: -30% | change in vivo at 100 mg/kg [1]: -30% | change in vivo at 200 mg/kg [1]: -40% | mortality at 336 h ([3]; 1000 mg/kg): 0% | mortality at 336 h ([3]; 1500 mg/kg): 10% | mortality at 336 h ([3]; 2000 mg/kg): 10% | inhibition in vivo at 100 mg/kg (phenylbenzoquinone (PBQ); [7]): 10% | inhibition in vivo at 200 mg/kg (phenylbenzoquinone (PBQ); [8]): 36% | change in vivo at 200 mg/kg [4, 9]: -34% | change in vivo at 50 mg/kg ([5]; 50 mg/kg): -31% | change in vivo at 100 mg/kg [5]: -25% | change in vivo at 200 mg/kg ([5]; 200 mg/kg): -31%

C(=Cc1ccccc1)C=Nc1cc2c(cc1CCN1CCCC1)OCO2 [COR 01 200]
% of increase in the number of displacements of the animal ([2]; 5 mg/kg): +112% | % of increase in the number of displacements of the animal ([2]; 10 mg/kg): +180% | % of increase in the number of displacements of the animal ([2]; 20 mg/kg): +292% | % of increase in the number of displacements of the animal ([2]; 25 mg/kg): +142% | % of increase in the number of displacements of the animal ([2]; 50 mg/kg): +84% | mortality at 336 h ([3]; 750 mg/kg): 0% | mortality at 336 h ([3]; 1000 mg/kg): 10% | mortality at 336 h ([3]; 1500 mg/kg): 70% | change in vivo at 10 mg/kg ([4]; 5 min, 10 mg/kg, read-out: % of activity (variation of the number of escapes)): 25% | change in vivo at 50 mg/kg [4, 9]: 38% | change in vivo at 25 mg/kg [5]: -28% | change in vivo at 100 mg/kg [5]: -24%

C(=Nc1cc2c(cc1CCN1CCCC1)OCO2)c1cccnc1 [COR 01 186]
mortality at 336 h ([3]; 750 mg/kg): 0% | mortality at 336 h ([3]; 1500 mg/kg): 50% | % of mortality (Swiss mice): 40%

CC(=O)Oc1ccccc1C(=O)O [Acetylsalicyclic acid, reference compound]
inhibition in vivo at 100 mg/kg (phenylbenzoquinone (PBQ); [10]): 55% | inhibition in vivo at 200 mg/kg (phenylbenzoquinone (PBQ); [11]): 61%

CC(Cc1ccccc1N=Cc1cccnc1)N(C)C (centres unmarked) [COR 01 214, 2-(2-N,N-dimethylamino-2-methylethyl)-N-pyridylidene-3 aniline]
mortality at 336 h ([3]; 1000 mg/kg): 0% | mortality at 336 h ([3]; 1500 mg/kg): 30% | mortality at 336 h ([3]; 2000 mg/kg): 70% | inhibition in vivo at 100 mg/kg (phenylbenzoquinone (PBQ); [10]): 21% | inhibition in vivo at 200 mg/kg (phenylbenzoquinone (PBQ); [11]): 30%

2-(2-N,N-dimethylamino-1-methylethyl)-N-pyridylidene-3 aniline [COR 01 213]
% of activity (variation of the number of escapes) ([4]; 100 mg/kg): -20%

CN(C)CCc1cc2c(cc1N=Cc1ccccc1C(=O)O)OCO2 [COR 01 142, N-6-(2-N,N-dimethylaminoethyl)-1,3-benzodioxol-5-yl-2-formimidoylbenzoic acid, internal salt]
mortality at 336 h ([3]; 1000 mg/kg): 0% | mortality at 336 h ([3]; 2000 mg/kg): 50% | inhibition in vivo at 50 mg/kg (phenylbenzoquinone (PBQ); [6]): 22% | inhibition in vivo at 100 mg/kg (phenylbenzoquinone (PBQ); [7]): 20% | inhibition in vivo at 200 mg/kg (phenylbenzoquinone (PBQ); [8]): 10%
